# Data published in US20210401957A1, “ROBO1 CAR-NK CELL CARRYING SUICIDE GENE, PREPARATION METHOD AND APPLICATION THEREOF” (Asclepius (Suzhou) Technology Company Group Co., Ltd., priority 2019, published 2021).
# System: ROBO1-iCaspase9CAR-NK cells
# Test: Apoptosis of ROBO1-iCaspase9 CAR-NK cells induced by medicament AP1903
# Format: cell-based, human
# Conditions: within 24 hours
# Experimental: Different amounts of medicament AP1903 were respectively added into the ROBO1 CAR-NK cells carrying the suicide gene (ATCG427B-1F7 and 2D5) after screening in Example 6 to test the effect thereof on apoptosis of the ROBO1 CAR-NK cells carrying the suicide gene (denoted with ATCG427B). Meanwhile, the medicament AP1903 was added into the ROBO1 CAR-NK cells as control, and divided into three experimental groups, i.e., cells treated by the medicament AP1903 with different concentrations (0 nM, 10 nM and 50 nM) for 2 hours, 4 hours and 24 hours. The experimental groups respectively treated for 4 hours and 24 hours were continuously cultured with fresh medium, and the cell viability was counted three days later, and the results were shown in FIG. 12. In addition, the 0 nM and 10 nM experimental groups treated for 4 hours were cultured in fresh medium for 24 hours and then photographed, and the results were shown in FIG. 13.
structure (smiles),measurement,value
CC[C@H](C(=O)N1CCCC[C@H]1C(=O)O[C@H](CCc1ccc(OC)c(OC)c1)c1cccc(OCC(=O)NCCNC(=O)COc2cccc([C@@H](CCc3ccc(OC)c(OC)c3)OC(=O)[C@@H]3CCCCN3C(=O)[C@@H](CC)c3cc(OC)c(OC)c(OC)c3)c2)c1)c1cc(OC)c(OC)c(OC)c1 [AP1903],effect of AP1903 on the control cells (printed as ROBO1-iCaspase9CAR-NK cells),has no effect
same,killing of ROBO1-iCaspase9CAR-NK cells by AP1903,can effectively kill
